Reference: a melting point compilation (Tetko et al.; mined from patent text by program, amines drawn as free bases though some values may be those of a salt)

| melting point | Structure (SMILES) |
| --- | --- |
| 123 to 124 °C | CCOc1nn(Cc2cc(OCc3ccc4ccccc4n3)no2)cc1CCC(=O)O |
| 94 °C | COc1ccc(Nc2nc(NCCNC(=O)OC(C)(C)C)nc(NC3CCCCCC3)n2)cc1Cl |
| 145 to 146 °C | CN(C)Cc1nncn1-c1ccc(Br)cc1C(=O)c1ccccn1 |
| 105 to 106 °C | N#CCCNC(=S)C1=CC(CF)(CF)Oc2ccc(C(F)(F)F)cc21 |
| 120 to 121 °C | COCCN1C(C)=C(C(=O)OC)C(CCOC)(c2ccccc2Cl)C(C(=O)OC)=C1C |
| 71 to 73 °C | CCCCCCCCCCc1nnnn1CC(=O)Nc1c(C(C)C)cccc1C(C)C |
| 136 °C | CCOC(=O)c1cccc(NC(=O)NCC(=O)N2[C@@H](C(=O)OCC)CC[C@H]2c2ccccc2)c1 (racemic) |
| 163 °C | CCCCOc1cc(C(=O)NCCN(CC)CC)cc(S(N)(=O)=O)c1Cc1ccccc1 |
| 113 °C | CC(=O)OC1CSC(Oc2cccc(-c3ccc(F)cn3)c2)C(OC(C)=O)C1OC(C)=O (configuration not stated) |
| 84 to 86 °C | CCCCCCCCCCS(=O)(=O)CCCOCCn1c(CCC)nc2c(N)nc3ccccc3c21 |
| 220 to 223 °C | O=S1(=O)NC(C2CCCCC2)=Nc2cccc(CO)c21 |
| 153 to 155 °C | NC(=O)COc1ccc([N+](=O)[O-])cc1 |
| 178 to 179 °C | Cn1c(C(F)(F)F)ccc(-c2c(F)cc(Cl)c3occc23)c1=O |
| > 250 °C | NCc1cccc(-c2cnc(-c3ccc(Cl)c(Cl)c3)[nH]2)c1 |
| 112 to 114 °C | Cc1cc(C2(c3cccc(-c4cncnc4)c3)N=C(N)N(C)C2=O)ccc1O[C@H](C)c1ccccc1 (some centres not stated) |
| 178 to 180 °C | COc1ccc(C2Sc3cc(Cl)c(Cl)cc3N(CCN(C)C)C(=O)C2O)cc1 (configuration not stated) |
| 79.6 to 80.5 °C | CC(=O)Oc1cn(C(C)=O)c2ccccc12 |
| 86 to 88 °C | CN(C)C=Nc1nc(OCOC(=O)C(C)(C)C)ncc1F |
| 174 to 176 °C | Cc1nc2cnccc2n1-c1ccc2c(c1)CC(C#N)C2 (configuration not stated) |
| 148 to 150 °C | COC(=O)c1cccc(COc2ccc(S(=O)(=O)c3ccc(C)nc3Nc3c(C)cc(C)cc3C)cc2)c1 |
| 120 to 126 °C | COc1cc(Nc2nc3ccnc(-c4cccc(N)c4)c3o2)cc(OC)c1OC |
| 133 to 135 °C | O=C(Nc1nnc(COc2ccccc2Cl)s1)c1ccc2c(c1)CCN(C(=O)CO)C2 |
| 163 to 165 °C | CCOc1ccc(S(=O)(=O)N2CCNCC2)cc1-c1nc2c(C)cccc2c(=O)[nH]1 |
| 75 °C | COC(=O)CCCCCCCCCCCNC(=O)NC12CC3CC(CC(C3)C1)C2 |

| melting point | Structure (SMILES) |
| --- | --- |
| 124 to 127 °C | COC(=O)C(Cl)Cc1ccc2c(c1)NC(=O)C(Cc1ccccc1)O2 (configuration not stated) |
| 120 °C | CCCCc1nc(SC)c(C(=O)OCC)n1Cc1cccc(-c2ccc(S(=O)(=O)NC#N)cc2)c1 |
| 143 to 145 °C | CCC(=O)N(CCc1ccccc1)C1CCc2c(cccc2NC(C)=O)C1 (configuration not stated) |
| 241 to 243 °C | Cn1c(C(F)(F)F)cc(=O)n(-c2ccc3snc(C(=O)NS(C)(=O)=O)c3c2)c1=O |
| 289 to 290 °C | CC1(C)Cc2c(c(N3CCCC3)nc3sc4c(NCc5cccnc5)ncnc4c23)CO1 |
| 88.5 to 90 °C | CN(C)CCn1c(-c2cccc(C(F)(F)F)c2)cc2c1CCSC2 |
| 224 to 225 °C | NC(=O)c1sc(Nc2ccc(Cl)cc2)c2c1CCc1cnoc1-2 |
| 182 to 184 °C | CN1CCN(C2=Nc3ccccc3Nc3nn(C)nc32)CC1 |
| 105 to 108 °C | CC(C)n1ncc2c(N(C)N)ncnc21 |
| 87 °C | Cc1ccncc1-n1nc(C)c(CC(=O)OCC2CC2)c1-c1ccccc1 |
| 147 to 148 °C | CCOC(=O)c1cn(Cc2ccccc2)nc1OCc1ccc(OC)c(OCc2nc(-c3ccco3)oc2C)c1 |
| 95 to 98 °C | O=C(CCCCC1SCC2NC(=O)NC21)NCCOCCOCCN1C(=O)C=C(Br)C1=O (configuration not stated) |
| 191 to 193 °C | CCCc1c(OCc2c(C)ccn3c(=O)c(CC(=O)O)cnc23)ccc(C(C)=O)c1O |
| 225 to 227 °C | Cc1cc2c(C#N)ccc(C#N)c2cc1C |
| 126 to 129 °C | S=C(NCCc1ccccn1)NN=C(CCCCl)c1ccccc1 |
| 165 °C | CCCN(CCC)CC1CCCCN1CCNC(=O)N1c2ccccc2C(=O)Nc2cccnc21 (configuration not stated) |
| 115 to 117 °C | COc1ccc(N)cc1C(=O)NCc1ccc(C(F)(F)F)cc1 |
| 162 °C | CCCCC(=O)NNC(=O)c1ccncc1 |
| 221 to 222 °C | Cc1cc(C2(C(F)(F)F)CC(c3ccc(F)cc3)=NO2)ccc1N1C(=O)c2cccc([N+](=O)[O-])c2C1=O (configuration not stated) |
| 340 to 343 °C | O=C(O)c1ccc2c(c1)S(=O)(=O)c1ccccc1S2=O (configuration not stated) |
| 62 to 63 °C | FC(F)(F)Oc1ccc(-c2ccc3c(ccn3Cc3ccccc3)c2)cc1 |
| 44 °C | CCCCCCc1ccc(-c2ccc(-c3ccc(CCCCC)cc3)c(F)c2)s1 |
| 77.8 to 78.9 °C | CCCOCCNC(=O)C(c1ccccc1)c1ccccc1 |
| 133 to 136 °C | NOCc1cnn(C(c2ccccc2)(c2ccccc2)c2ccccc2)c1 |

| melting point | Structure (SMILES) |
| --- | --- |
| 215 to 220 °C | CCCCc1nc2cccc(C(=O)OC)c2n1Cc1ccc(-c2cncnc2-c2nnn[nH]2)cc1 |
| 208 to 211 °C | Cn1cnc2cc(NN)ccc2c1=O |
| 119 to 120 °C | Cc1oc(-c2ccccc2)nc1CCCc1ccc(CCCC2OC(=O)NC2=O)cc1 (configuration not stated) |
| 52 to 55 °C | CCCCCC(=O)c1cccc(OCc2ccc3ccccc3n2)c1 |
| 180 to 183 °C | Clc1nnc(Nc2cc(CN3CCCC3)cc(CN3CCCC3)c2)c2ccccc12 |
| 182 to 186 °C | COc1ccc(-n2c(N)cc(=O)nc2SC)cc1 |
| 58 to 60 °C | CNCC1Cc2c(Cl)cc3c(c2O1)CCC3 (configuration not stated) |
| 132 to 133 °C | NC(=O)c1ccccc1OCCNCC(O)COc1nccnc1Cl (configuration not stated) |
| 82 to 85 °C | CCCC(CCC)n1ccc(=O)c2c(Cl)cc(C)nc21 |
| 121 to 122 °C | CC1C(=O)C(c2ccc(S(C)(=O)=O)cc2)=C1c1ccccc1 (configuration not stated) |
| 139 to 140 °C | Cc1oc(-c2ccccc2)nc1CCOc1ccc(CCC(N)=O)cc1 |
| 227 to 228 °C | CC1=NC(NC(=O)Nc2cccc(C)c2)C(=O)N(CC(=O)N(CC(C)C)CC(C)C)c2c(C)cccc21 (configuration not stated) |
| 96 to 98 °C | COc1ccc(C2=C(Cl)C(=O)C2)cc1 |
| 69 to 71 °C | COc1ccccc1N1CCN(CCNC(=O)CCN2CCC(c3c[nH]c4cc(Cl)ccc34)CC2)CC1 |
| 234 to 236 °C | CS(=O)(=O)c1ccc(-c2cnn(-c3ccccc3C=O)c(=O)c2-c2ccc(F)cc2)cc1 |
| 109 to 115 °C | Cc1cc(C2=NN(C(=S)NN)[C@H](C)Cc3cc4c(cc32)OCO4)ccc1[N+](=O)[O-] |
| 152 to 154 °C | CCCc1ccc(-n2nc(Cl)cc2-c2ccc(S(C)(=O)=O)cc2)cc1N |
| 152 to 155 °C | CC(C)Cn1c(=O)n(C)c(=O)c2c(SCCCO)c(C(=O)c3cccnc3)sc21 |
| 173 to 176 °C | O=c1oc(-c2ccc(C(F)(F)F)cc2)nn1Cc1cc(Cl)ccc1OP(=O)(O)O |
| 215 to 217 °C | COc1cc(C)nc(NC(=O)NS(=O)(=O)c2c(C)nn(C)c2S(=O)(=O)N(C)C)n1 |
| 106 to 107 °C | COC(=O)C(=O)c1ccccc1COc1ccc(-c2ccccc2)cc1 |
| 170 to 178 °C | NCc1ccc2c(c1)C(=O)c1ccccc1C2=O |
| 250 to 251 °C | CC(C)[C@@H]1NC(=O)OC1(c1ccccc1)c1ccccc1 |
| 133 to 135 °C | CCOc1ccc(-c2ccc3c(c2)C=C(C(=O)OC)CCN3C=O)cc1 |

| melting point | Structure (SMILES) |
| --- | --- |
| 84 to 87 °C | COc1ccc(OCCOS(N)(=O)=O)cc1 |
| 79 to 81 °C | CCOC(=O)C(C)(C)Oc1ccc(OCc2nc(-c3ccc(C(C)(C)C)cc3)no2)cc1 |
| > 200 °C | N#Cc1c(Cl)[nH]c(-c2ccc(Cl)s2)c1Br |
| 86.2 to 87.8 °C | CC[C@H](CC[N+](=O)[O-])C(=O)N[C@@H](Cc1ccccc1)C(=O)OC |
| 87 °C | O=[N+]([O-])c1ccccc1COc1cc[nH]n1 |
| 240 °C | N#Cc1ccc2c(c1)-c1ccccc1OP2(=O)O |
| 143 to 145 °C | C[C@@H](O[C@H]1CCCN(Cc2n[nH]c(=O)[nH]2)[C@H]1c1ccccc1)c1cccc(C(F)(F)F)c1 |
| 73 to 74 °C | COc1ccc(/C(C)=C/C(=O)O)cc1OC |
| 63 to 65 °C | Cc1ccc(S(=O)(=O)OC2CON(C(=O)OC(C)(C)C)C2)cc1 (configuration not stated) |
| 125 to 126 °C | Cc1oc(-c2ccco2)nc1COc1ccc(CCl)cc1Br |
| 230 to 231 °C | CS(=O)(=O)N(c1cc(-c2ncc(C(F)(F)F)cc2Cl)ccc1Cl)S(C)(=O)=O |
| 63.8 to 65.2 °C | CCCCCCCCc1c(CCCCCCCC)c2cc(Br)sc2c2sc(Br)cc12 |
| 12.7 °C | C=CCCOC[C@H]1CC[C@H](c2ccc(C#N)cc2)CC1 |
| 181 °C | CCC(=O)NN=C(C)c1cnccn1 |
| 93 to 95 °C | C#CCOc1cccc(NC(=O)c2ccccc2C)c1 |
| 116 to 118 °C | COc1ccc(CC2CCCN(c3nc(C)c(C(=O)NCc4ccccc4)s3)C2=O)cc1 (configuration not stated) |
| 167 to 169 °C | CCOC(=O)C1=C(CO)NC(C)=C(C(=O)OCCO)C1c1ccccc1[N+](=O)[O-] (configuration not stated) |
| 170 to 172 °C | C[C@@H](NC(=O)c1nc(-c2ccc(Cl)cc2)no1)[C@](O)(Cn1cncn1)c1ccc(F)cc1F |
| 103 to 105 °C | COc1cc(OC)c2c(=O)[nH]c(-c3ccc(OCCN4CCCC4)c(-c4ccc(S(C)=O)cc4)n3)nc2c1 (configuration not stated) |
| > 250 °C | O=C1CCn2nc(-c3ccc(F)cc3)c(-c3ccncc3)c2N1 |
| 90 to 91 °C | CCn1c(C(F)(F)F)cc(=O)n(-c2cc(C(=O)OC3CCCC3)c(Cl)cc2F)c1=O |
| 246 to 248 °C | Cc1ccccc1C(=O)Nc1ccc(C(=O)N2CCc3cn(C)nc3-c3ccccc32)cc1 |
| 151 to 158 °C | Cn1cc2c(nc(NC(=O)Nc3ccc(CC(=O)NCCCOCCOCCOCCCNC(=O)OC(C)(C)C)cc3)n3nc(-c4ccco4)nc23)n1 |

| Structure (SMILES) | melting point |
| --- | --- |
| CCCN(CCC)C(=O)n1cc(C)c2c1CC1(c3cccc(O)c3)CCN(CC)CC1C2 (configuration not stated) | 151 to 153 °C |
| CC(O)/C=C/c1ncn2c1CN(C)C(=O)c1c(Cl)cccc1-2 (configuration not stated) | 232 to 233 °C |
